In general, IC50 refers to the concentration that gives 50% inhibition.

Here are results for 27 compounds from patent US8563542B2 (Cyclacel Limited, priority 2007, dated 2013).

The target of one assay is PLK1 (Homo sapiens, UniProt P53350). Description: PLK1 protein kinase assay (CDC25C phosphorylation, [γ-32P]-ATP). Conditions: Table 1; read-out: PLK1 IC50. Type of assay: biochemical.
Chain of PLK1 (P53350 whole entry): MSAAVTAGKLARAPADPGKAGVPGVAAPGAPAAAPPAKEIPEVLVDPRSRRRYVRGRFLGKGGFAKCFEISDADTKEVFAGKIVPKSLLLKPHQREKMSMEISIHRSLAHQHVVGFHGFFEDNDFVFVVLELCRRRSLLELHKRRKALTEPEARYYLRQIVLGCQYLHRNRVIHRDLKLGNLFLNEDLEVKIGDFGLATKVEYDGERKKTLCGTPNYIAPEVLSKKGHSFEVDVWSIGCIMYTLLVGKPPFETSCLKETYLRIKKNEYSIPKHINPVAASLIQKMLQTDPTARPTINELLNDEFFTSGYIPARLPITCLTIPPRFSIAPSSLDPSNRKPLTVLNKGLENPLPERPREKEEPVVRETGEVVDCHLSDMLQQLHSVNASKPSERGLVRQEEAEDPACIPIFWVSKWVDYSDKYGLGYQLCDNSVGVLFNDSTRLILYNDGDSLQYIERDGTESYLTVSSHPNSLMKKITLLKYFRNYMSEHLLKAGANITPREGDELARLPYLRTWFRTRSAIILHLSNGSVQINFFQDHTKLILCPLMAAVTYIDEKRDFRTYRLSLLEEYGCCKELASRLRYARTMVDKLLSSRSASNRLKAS
Consider `COc1cc(C(=O)NC2CCN(C)CC2)ccc1Nc1ncc2c(n1)N(C1CCCCC1)C(C)CC(=O)N2` (stereo not drawn) [compound 35, 4-(9-Cyclohexyl-8-methyl-6-oxo-6,7,8,9-tetrahydro-5H-pyrimido[4,5-b][1,4]diazepin-2-ylamino)-3-methoxy-N-(1-methyl-piperidin-4-yl)-benzamide], for which the IC50 was under 1000 nM. On to `CC1CN(C2CCCC2)c2nc(Nc3ccc(O)cc3)ncc2NC1=O` (stereo not drawn) [compound 11, 9-Cyclopentyl-2-(4-hydroxy-phenylamino)-7-methyl-5,7,8,9-tetrahydro-pyrimido[4,5-b][1,4]diazepin-6-one], for which the 50% inhibitory concentration (IC50) is under 10000 nM. In the case of `COc1cc(C(=O)NC2CCN(C)CC2)ccc1Nc1ncc2c(n1)N(C1CCCC1)CC(C)C(=O)N2` (stereo not drawn) [compound 17, 4-(9-Cyclopentyl-7-methyl-6-oxo-6,7,8,9-tetrahydro-5H-pyrimido[4,5-b][1,4]diazepin-2-ylamino)-3-methoxy-N-(1-methyl-piperidin-4-yl)-benzamide], the IC50 was under 10000 nM.

As to `CCN1C(=O)C(C)CN(C2CCCC2)c2nc(Nc3ccc(C(=O)NC4CCN(C)CC4)cc3OC)ncc21` (stereo not drawn) [compound 28, 4-(9-Cyclopentyl-5-ethyl-7-methyl-6-oxo-6,7,8,9-tetrahydro-5H-pyrimido[4,5-b][1,4]diazepin-2-ylamino)-3-methoxy-N-(1-methyl-piperidin-4-yl)-benzamide], the IC50 is under 1000 nM.

Staying with this assay, now noted: Table 2, PLK1 IC50; class symbols; read-out: PLK1 IC50.
As to `CCN(CC)CCNC(=O)c1ccc(Nc2ncc3c(n2)N(c2ccccc2C)CCC(=O)N3C)c(OC)c1` [compound 313, N-(2-Diethylamino-ethyl)-3-methoxy-4-(5-methyl-6-oxo-9-o-tolyl-6,7,8,9-tetrahydro-5H-pyrimido[4,5-b][1,4]diazepin-2-ylamino)-benzamide], the IC50 is under 10000 nM. Regarding `CCN(CC)CCNC(=O)c1ccc(Nc2ncc3c(n2)N(C2CCCC2)CC2(CC2)C(=O)N3C)c(OC)c1` [compound 182, 4-(9-Cyclopentyl-5-methyl-6-oxo-6,7,8,9-tetrahydro-5H-spiro[pyrimido[4,5-b][1,4]diazepin-3,1′-cyclopropane]-2-ylamino)-N-(2-diethylamino-ethyl)-3-methoxy-benzamide], the IC50 is under 100 nM. On the same count and under the same terms, next, `COc1cc(C(=O)NCc2ccco2)ccc1Nc1ncc2c(n1)N(C1CCCC1)CC(C)(C)C(=O)N2C` [compound 201, 4-(9-Cyclopentyl-5,7,7-trimethyl-6-oxo-6,7,8,9-tetrahydro-5H-pyrimido[4,5-b][1,4]diazepin-2-ylamino)-N-furan-2-ylmethyl-3-methoxy-benzamide]: under 100 nM; `COc1ccc(C(=O)NCC2CCCCN2C)cc1Nc1ncc2c(n1)N(C1CCCC1)CCC(=O)N2C` (stereo not drawn) [compound 269, 3-(9-Cyclopentyl-5-methyl-6-oxo-6,7,8,9-tetrahydro-5H-pyrimido[4,5-b][1,4]diazepin-2-ylamino)-4-methoxy-N-(1-methyl-piperidin-2-ylmethyl)-benzamide]: under 1000 nM; `COc1cc(C(=O)NC2CCN(C)CC2)ccc1Nc1ncc2c(n1)N(C1CCCC1)CC1(CCC1)C(=O)N2C` [compound 100, 4-(9-Cyclopentyl-5-methyl-6-oxo-6,7,8,9-tetrahydro-5H-spiro[pyrimido[4,5-b][1,4]diazepin-3,1′-cyclobutane]-2-ylamino)-3-methoxy-N-(1-methyl-piperidin-4-yl)-benzamide]: under 100 nM.

Regarding `COc1cc(C(=O)NC2CCN(Cc3ccccc3)CC2)ccc1Nc1ncc2c(n1)N(C1CCCC1)CC1(CCC1)C(=O)N2C` [compound 217, 4-(9-Cyclopentyl-5-methyl-6-oxo-6,7,8,9-tetrahydro-5H-spiro[pyrimido[4,5-b][1,4]diazepin-3,1′-cyclobutane]-2-ylamino)-3-methoxy-N-(1-benzylpiperidin-4-yl)-benzamide], the IC50 was under 1000 nM. With `Cc1cccc(CNc2ncc3c(n2)N(C2CCCC2)CCC(=O)N3C)c1` [compound 131, 9-Cyclopentyl-5-methyl-2-(3-methyl-benzylamino)-5,7,8,9-tetrahydro-pyrimido[4,5-b][1,4]diazepin-6-one], the IC50 was under 10000 nM. As to `COc1ccc(C(=O)NCCCN(C)C)cc1Nc1ncc2c(n1)N(C1CCCC1)CCC(=O)N2C` [compound 232, 3-(9-Cyclopentyl-5-methyl-6-oxo-6,7,8,9-tetrahydro-5H-pyrimido[4,5-b][1,4]diazepin-2-ylamino)-N-(3-dimethylamino-propyl)-4-methoxy-benzamide], the IC50 was under 1000 nM. Same read-out and setting: next, `COc1cc(C(=O)NC2CCN(C)CC2)ccc1Nc1ncc2c(n1)N(c1ccccc1OC)CCC(=O)N2C` [compound 277, 3-Methoxy-4-[9-(2-methoxy-phenyl)-5-methyl-6-oxo-6,7,8,9-tetrahydro-5H-pyrimido[4,5-b][1,4]diazepin-2-ylamino]-N-(1-methyl-piperidin-4-yl)-benzamide]: under 10000 nM; `COc1cc(C(=O)NC2CCN(Cc3ccccc3)C2)ccc1Nc1ncc2c(n1)N(C1CCCC1)CC1(CC1)C(=O)N2C` (stereo not drawn) [compound 322, N-(Benzyl-pyrrolidin-3-yl)-4-(9-cyclopentyl-5-methyl-6-oxo-6,7,8,9-tetrahydro-5H-spiro[pyrimido[4,5-b][1,4]diazepin-3,1′-cyclopropane]-2-ylamino)-3-methoxy-N-benzamide]: under 100 nM. As for `CN1CCC(NC(=O)c2ccc(Nc3ncc4c(n3)N(C3CCCC3)CCC(=O)N4C)c(OC(F)(F)F)c2)CC1` [compound 216, 4-(9-Cyclopentyl-5-methyl-6-oxo-6,7,8,9-tefrahydro-5H-pyrimido[4,5-b][1,4]diazepin-2-ylamino)-N-(1-methyl-piperidin-4-yl)-3-trifluoromethoxy-benzamide], the IC50 was under 1000 nM. Consider `CCN(CC)CCNC(=O)c1ccc(Nc2ncc3c(n2)N(C2CCCC2)CC2(CCC2)C(=O)N3C)c(OC)c1` [compound 219, 4-(9-Cyclopentyl-5-methyl-6-oxo-6,7,8,9-tetrahydro-5H-spiro[pyrimido[4,5-b][1,4]diazepin-3,1′-cyclobutane]-2-ylamino)-N-(2-diethylamino-ethyl)-3-methoxy-benzamide], for which the concentration for half-maximal inhibition (IC50) is under 100 nM. Same read-out and setting: for `CN1C(=O)CCN(C2CCCC2)c2nc(NCc3ccoc3)ncc21` [compound 107, 9-Cyclopentyl-2-[(furan-3-ylmethyl)-amino]-5-methyl-5,7,8,9-tetrahydro-pyrimido[4,5-b][1,4]diazepin-6-one] the value was under 10000 nM.

With `COc1cc(C(=O)NCCCO)ccc1Nc1ncc2c(n1)N(C1CCCC1)CCC(=O)N2C` [compound 159, 4-(9-Cyclopentyl-5-methyl-6-oxo-6,7,8,9-tetrahydro-5H-pyrimido[4,5-b][1,4]diazepin-2-ylamino)-N-(3-hydroxy-propyl)-3-methoxy-benzamide], the IC50 is under 1000 nM. On the same count and under the same terms, next, `CCN1CCC(NC(=O)c2ccc(Nc3ncc4c(n3)N(C3CCCC3)CCC(=O)N4C)c(OC)c2)CC1` [compound 237, 4-(9-Cyclopentyl-5-methyl-6-oxo-6,7,8,9-tetrahydro-5H-pyrimido[4,5-b][1,4]diazepin-2-ylamino)-N-(1-ethyl-piperidin-4-yl)-3-methoxy-benzamide]: under 100 nM. For `Cc1cc(C(=O)O)ccc1Nc1ncc2c(n1)N(C1CCCC1)CC1(CC1)C(=O)N2C` [compound 280, 4-(9-Cyclopentyl-5-methyl-6-oxo-6,7,8,9-tetrahydro-5H-pyrimido[4,5-b][1,4]diazepin-3,1′-cyclopropane-2-ylamino)-3-methyl-benzoic acid], the IC50 is under 10000 nM. On the same count and under the same terms, next, `CN1C(=O)CCN(C2CCCC2)c2nc(Nc3cccc4cc[nH]c34)ncc21` [compound 98, 9-Cyclopentyl-2-(1H-indol-7-ylamino)-5-methyl-5,7,8,9-tetrahydro-pyrimido[4,5-b][1,4]diazepin-6-one]: under 1000 nM; `COc1cc(C(=O)NCC2CCN(C)CC2)ccc1Nc1ncc2c(n1)N(C1CCCC1)CCC(=O)N2C` [compound 158, 4-(9-Cyclopentyl-5-methyl-6-oxo-6,7,8,9-tetrahydro-5H-pyrimido[4,5-b][1,4]diazepin-2-ylamino)-3-methoxy-N-(1-methyl-piperidin-4-ylmethyl)-benzamide]: under 100 nM.

For `COc1cc(C(=O)NC2CCCC2)ccc1Nc1ncc2c(n1)N(C1CCCC1)CCC(=O)N2C` [compound 204, N-Cyclopentyl-4-(9-cyclopentyl-5-methyl-6-oxo-6,7,8,9-tetrahydro-5H-pyrimido[4,5-b][1,4]diazepin-2-ylamino)-3-methoxy-benzamide], the IC50 is under 100 nM. On the same count and under the same terms, next, `COc1cc(C(=O)NC2CCNCC2)ccc1Nc1ncc2c(n1)N(C1CCCC1)CCC(=O)N2C` [compound 206, 4-(9-Cyclopentyl-5-methyl-6-oxo-6,7,8,9-tetrahydro-5H-pyrimido[4,5-b][1,4]diazepin-2-ylamino)-3-methoxy-N-piperidin-4-yl-benzamide]: under 100 nM; `CCc1cc(C(=O)O)ccc1Nc1ncc2c(n1)N(C1CCCC1)CC1(CC1)C(=O)N2C` [compound 229, 4-(9-Cyclopentyl-5-methyl-6-oxo-6,7,8,9-tetrahydro-5H-pyrimido[4,5-b][1,4]diazepin-3,1′-cyclopropane-2-ylamino)-acid]: under 1000 nM.

The same assay, now with this note: Table 3; read-out: PLK1 IC50.
As for `COc1cc(C(=O)N[C@H]2CC[C@H](N3CCN(CC4CC4)CC3)CC2)ccc1Nc1ncc2c(n1)N(C1CCCC1)CC1(CC1)C(=O)N2C` [Compound 371, 4-(9′-cyclopentyl-5′-methyl-6′-oxo-5′,6′,8′,9′-tetrahydrospiro[cyclopropane-1,7′-pyrimido[4,5-b][1,4]diazepine]-2′-ylamino)-N-((trans)-4-(4-(cyclopropylmethyl)piperazin-1-yl)cyclohexyl)-3-methoxybenzamide], the IC50 was under 100 nM. For the compound `COc1cc(C(=O)NC2CCC(N3CCCN(CC4CC4)CC3)CC2)ccc1Nc1ncc2c(n1)N(C1CCCC1)CC1(CC1)C(=O)N2C` (stereo not drawn) [Compound 381, 4-(9′-cyclopentyl-5′-methyl-6′-oxo-5′,6′,8′,9′-tetrahydrospiro[cyclopropane-1,7′-pyrimido[4,5-b][1,4]diazepine]-2′-ylamino)-N-(4-(4-(cyclopropylmethyl)-1,4-diazepan-1-yl)cyclohexyl)-3-methoxybenzamide], the IC50 was under 100 nM.
